Measured values reported in patent publication US7939110B2, “Composition and method for treating autoimmune disease and mucosal disorder” (National Yang-Ming University, priority 2005, dated 2011).

Key:
[1] = tested on: C57BL/6j mice; test: Ovalbumin-specific IgM in serum, oral tolerance model; assay type: in vivo
Procedure: Since it is well-known that animals can be immunized by ovalbumin (OVA) to establish the animal model for the autoimmune disease (The Journal of Pharmacology and Experimental Therapeutics 288:849-857, 1999), the present invention establishes an animal model which includes mice with OVA-induced autoimmune disease, and the mice are treated with DeCaPS to enhance oral tolerance. […] 50 μg of OVA with Complete Freund's Adjuvant (CFA) was administrated to the mice as an antigen via i.p. injection at day 8 and with OVA on day 24. OVA-specific IgG and IgM in the blood was collected at day 22 and day 30. The mice were sacrificed at day 32 to collect an intestinal lavage solution of the intestinal mucosa and the lung mucosa to detect IgA in response to OVA. The detailed experimental procedures are illustrated in the following table II.
With comparison to the IgM antibody level expressed in the control group at day 22, the IgM antibody level expressed in the normal group was decreased by about 49% (p<0.05), the IgM antibody level-expressed in the positive control group was suppressed by about 87% (p<0.05), the IgM antibody level-expressed in the DC-1 group was suppressed by about 46% (p<0.02), the IgM antibody level-expressed in the DC-2 group was suppressed by about 88% (p<0.001), and the IgM antibody level in the DC-3 group was suppressed by about 86% (p<0.001). […]

[2] = tested on: C57BL/6j mice; test: Ovalbumin-specific IgG in serum, oral tolerance model; assay type: in vivo
Procedure: Since it is well-known that animals can be immunized by ovalbumin (OVA) to establish the animal model for the autoimmune disease (The Journal of Pharmacology and Experimental Therapeutics 288:849-857, 1999), the present invention establishes an animal model which includes mice with OVA-induced autoimmune disease, and the mice are treated with DeCaPS to enhance oral tolerance. C57/BL6j mice ([…]) were orally treated with 0.5 mg/ml ovalbumin (OVA) in drinking water at day 4 and day 5, and DeCaPS was administrated to the C57/BL6j mice as an adjuvant at dosages of 10 mg/kg/day, 40 mg/kg/day and 160 mg/kg/day at days 3-7. 50 μg of OVA with Complete Freund's Adjuvant (CFA) was administrated to the mice as an antigen via i.p. injection at day 8 and with OVA on day 24. OVA-specific IgG and IgM in the blood was collected at day 22 and day 30. The mice were sacrificed at day 32 to collect an intestinal lavage solution of the intestinal mucosa and the lung mucosa to detect IgA in response to OVA. The detailed experimental procedures are illustrated in the following table II. […]

[3] = day 22, positive control group (oral OVA days 1-5, no DeCaPS)
[4] = day 30, positive control group (oral OVA days 1-5, no DeCaPS)

## ovalbumin [ovalbumin antigen]
[1]; [3]
  IgM antibody level suppressed vs control group: about 87%
[1]; [4]
  IgM antibody level suppressed vs control group: about 72%
[2]; [3]
  IgG antibody level suppressed vs control group: about 94%
[2]; [4]
  IgG antibody level suppressed vs control group: about 75%
